Experimental data from patent US12252469B2, “Crystalline forms of (E)-N-hydroxy-3-(1-(phenylsulfonyl)indolin-5-yl)acrylamide” (ANBOGEN THERAPEUTICS INC., priority 2023, dated 2025).

Key:
[1] = Competitive slurry, inter-conversion of Type A and Type B; assay type: physicochemical; settings: t-Butanol and t-Butanol/H2O, RT; water activity calculated from KF by COSMOlogic
[2] = DVS water uptake; assay type: physicochemical
Description: DVS was measured via a SMS (Surface Measurement Systems) DVS Intrinsic or Intrinsic Plus. The relative humidity at 25° C. were calibrated against deliquescence point of LiCl, Mg(NO3)2 and KCl.

[3] = Long-term stability test of Type A powder; assay type: physicochemical; settings: 25±2° C./60±5% RH
Description: Furthermore, a long-term stability test and an accelerated stability test of Type A (in the form of powder) are executed, and the results thereof are shown in Table 19 and Table 20, respectively. More specifically, for the long-term stability test, the packaging and storage condition: package in double PE bags with silica gel in an aluminum bag and in a paper drum; sample quantity: 0.6 g; temperature: 25±2° C.; % relative humidity: 60±5%; frequency of analysis: 0, 1, 2, 3, 6, 9, 12, 18, 24, 36, 48 and 60 months; duration: 60 months. As for the accelerated stability test, the packaging and storage condition: package in double PE bags with silica gel in an aluminum bag and in a paper drum; sample quantity: 0.6 g; temperature: 40±2° C.; % relative humidity: 75±5%; frequency of analysis: 0, 1, 2, 3 and 6 months; duration: 6 months.

[4] = Heating experiment of Type A (XRPD); assay type: physicochemical
[5] = Solid stability evaluation for 1/2/4 weeks;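 note: Solid-state physical and chemical stability tracked by XRPD for form, KF for water content, and HPLC for purity and assay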
[6] = all storage conditions, 4 weeks

O=C(/C=C/c1ccc2c(c1)CCN2S(=O)(=O)c1ccccc1)NO [Type A, (E)-N-hydroxy-3-(1-(phenylsulfonyl)indolin-5-yl) acrylamide]
water activity at which the form was obtained in competitive slurry [1]: ≥ 0.37
water uptake (DVS) ([2]; 25° C./80% RH): 0.1396%
form change after DVS test (XRPD) ([2]; after DVS test): no form change
Appearance ([3]; 0 months): Pale white powder
Assay (HPLC) (98.0%~102.0%) (anhydrous basis) ([3]; 0 months): 101.6%
Related substance (HPLC) ABT-301 dimer (NMT 0.5%) ([3]; 0 months): 0 a/a %
Related substance (HPLC) Individual unknown Impurity (NMT 0.4%) ([3]; 0 months): 0.03%
Related substance (HPLC) Total Impurities (NMT 1.0%) ([3]; 0 months): 0.1%
Water content (KF) (NMT 4.0%) ([3]; 0 months): 2.6%
Appearance ([3]; 1 month): Pale white powder
Assay (HPLC) (98.0%~102.0%) (anhydrous basis) ([3]; 1 month): 100.3%
Related substance (HPLC) ABT-301 dimer (NMT 0.5%) ([3]; 1 month): 0 a/a %
Related substance (HPLC) Individual unknown Impurity (NMT 0.4%) ([3]; 1 month): 0.05%
Related substance (HPLC) Total Impurities (NMT 1.0%) ([3]; 1 month): 0.1%
Water content (KF) (NMT 4.0%) ([3]; 1 month): 2.6%
Appearance ([3]; 2 months): Pale white powder
Assay (HPLC) (98.0%~102.0%) (anhydrous basis) ([3]; 2 months): 100.6%
Related substance (HPLC) ABT-301 dimer (NMT 0.5%) ([3]; 2 months): 0 a/a %
Related substance (HPLC) Individual unknown Impurity (NMT 0.4%) ([3]; 2 months): 0.05%
Related substance (HPLC) Total Impurities (NMT 1.0%) ([3]; 2 months): 0.1%
Water content (KF) (NMT 4.0%) ([3]; 2 months): 2.6%
Appearance ([3]; 3 months): Pale white powder
Assay (HPLC) (98.0%~102.0%) (anhydrous basis) ([3]; 3 months): 101.4%
Related substance (HPLC) ABT-301 dimer (NMT 0.5%) ([3]; 3 months): 0 a/a %
Related substance (HPLC) Individual unknown Impurity (NMT 0.4%) ([3]; 3 months): 0.07%
Related substance (HPLC) Total Impurities (NMT 1.0%) ([3]; 3 months): 0.1%
Water content (KF) (NMT 4.0%) ([3]; 3 months): 2.6%
Appearance ([3]; 6 months): Pale white powder
Assay (HPLC) (98.0%~102.0%) (anhydrous basis) ([3]; 6 months): 100.2%
Related substance (HPLC) ABT-301 dimer (NMT 0.5%) ([3]; 6 months): 0 a/a %
Related substance (HPLC) Individual unknown Impurity (NMT 0.4%) ([3]; 6 months): 0.05%
Related substance (HPLC) Total Impurities (NMT 1.0%) ([3]; 6 months): 0.1%
Water content (KF) (NMT 4.0%) ([3]; 6 months): 2.6%
Appearance ([3]; 9 months): Pale white powder
Assay (HPLC) (98.0%~102.0%) (anhydrous basis) ([3]; 9 months): 100.6%
Related substance (HPLC) ABT-301 dimer (NMT 0.5%) ([3]; 9 months): 0 a/a %
Related substance (HPLC) Individual unknown Impurity (NMT 0.4%) ([3]; 9 months): 0.06%
Related substance (HPLC) Total Impurities (NMT 1.0%) ([3]; 9 months): 0.1%
Water content (KF) (NMT 4.0%) ([3]; 9 months): 2.9%
Appearance ([3]; 12 months): Pale white powder
Assay (HPLC) (98.0%~102.0%) (anhydrous basis) ([3]; 12 months): 100.4%
Related substance (HPLC) ABT-301 dimer (NMT 0.5%) ([3]; 12 months): 0 a/a %
Related substance (HPLC) Individual unknown Impurity (NMT 0.4%) ([3]; 12 months): 0.09%
Related substance (HPLC) Total Impurities (NMT 1.0%) ([3]; 12 months): 0.2%
Water content (KF) (NMT 4.0%) ([3]; 12 months): 2.6%
Appearance ([3]; 18 months): Pale white powder
Assay (HPLC) (98.0%~102.0%) (anhydrous basis) ([3]; 18 months): 100.0%
Related substance (HPLC) ABT-301 dimer (NMT 0.5%) ([3]; 18 months): 0 a/a %
Related substance (HPLC) Individual unknown Impurity (NMT 0.4%) ([3]; 18 months): 0.07%
Related substance (HPLC) Total Impurities (NMT 1.0%) ([3]; 18 months): 0.1%
Water content (KF) (NMT 4.0%) ([3]; 18 months): 2.8%
Appearance ([3]; 24 months): Pale white powder
Assay (HPLC) (98.0%~102.0%) (anhydrous basis) ([3]; 24 months): 99.8%
Related substance (HPLC) ABT-301 dimer (NMT 0.5%) ([3]; 24 months): 0 a/a %
Related substance (HPLC) Individual unknown Impurity (NMT 0.4%) ([3]; 24 months): 0.03%
Related substance (HPLC) Total Impurities (NMT 1.0%) ([3]; 24 months): 0.1%
Water content (KF) (NMT 4.0%) ([3]; 24 months): 2.7%
Appearance ([3]; 36 months): Pale wlite powder
Assay (HPLC) (98.0%~102.0%) (anhydrous basis) ([3]; 36 months): 100.1%
Related substance (HPLC) ABT-301 dimer (NMT 0.5%) ([3]; 36 months): 0 a/a %
Related substance (HPLC) Individual unknown Impurity (NMT 0.4%) ([3]; 36 months): 0.08%
Related substance (HPLC) Total Impurities (NMT 1.0%) ([3]; 36 months): 0.1%
Water content (KF) (NMT 4.0%) ([3]; 36 months): 2.6%
Appearance ([3]; 48 months): Pale white powder
Assay (HPLC) (98.0%~102.0%) (anhydrous basis) ([3]; 48 months): 100.4%
Related substance (HPLC) ABT-301 dimer (NMT 0.5%) ([3]; 48 months): 0 a/a %
Related substance (HPLC) Individual unknown Impurity (NMT 0.4%) ([3]; 48 months): 0.08%
Related substance (HPLC) Total Impurities (NMT 1.0%) ([3]; 48 months): 0.1%
Water content (KF) (NMT 4.0%) ([3]; 48 months): 2.6%
Appearance ([3]; 60 months): Pale white powder
Assay (HPLC) (98.0%~102.0%) (anhydrous basis) ([3]; 60 months): 100.5%
Related substance (HPLC) Individual unknown Impurity (NMT 0.4%) ([3]; 60 months): 0.08%
Related substance (HPLC) Total Impurities (NMT 1.0%) ([3]; 60 months): 0.1%
Water content (KF) (NMT 4.0%) ([3]; 60 months): 2.6%
form after heating (XRPD) ([4]; heated to 100° C. and cooled to RT): no form change
form after heating (XRPD) ([4]; heated to 122° C./130° C. and cooled to RT): converted to a new form, named as Type B
Assay ([5]; 25° C./60% RH, 1 week): 96.4%
Form (XRPD) ([5]; 25° C./60% RH, 1 week): Type A
HPLC purity ([5]; 25° C./60% RH, 1 week): 99.85 Area %
Assay ([5]; 25° C./60% RH, 2 weeks): 94.7%
Form (XRPD) ([5]; 25° C./60% RH, 2 weeks): Type A
HPLC purity ([5]; 25° C./60% RH, 2 weeks): 99.83 Area %
Assay ([5]; 25° C./60% RH, 4 weeks): 96.4%
Form (XRPD) ([5]; 25° C./60% RH, 4 weeks): Type A
HPLC purity ([5]; 25° C./60% RH, 4 weeks): 99.84 Area %
KF (water content) ([5]; 25° C./60% RH, 4 weeks): 2.8030%
Assay ([5]; 40° C./75% RH, 1 week): 96.6%
Form (XRPD) ([5]; 40° C./75% RH, 1 week): Type A
HPLC purity ([5]; 40° C./75% RH, 1 week): 99.84 Area %
Assay ([5]; 40° C./75% RH, 2 weeks): 95.6%
Form (XRPD) ([5]; 40° C./75% RH, 2 weeks): Type A
HPLC purity ([5]; 40° C./75% RH, 2 weeks): 99.84 Area %
Assay ([5]; 40° C./75% RH, 4 weeks): 96.1%
Form (XRPD) ([5]; 40° C./75% RH, 4 weeks): Type A
HPLC purity ([5]; 40° C./75% RH, 4 weeks): 99.85 Area %
KF (water content) ([5]; 40° C./75% RH, 4 weeks): 4.1509%
Assay ([5]; 60° C., 1 week): 96.2%
Form (XRPD) ([5]; 60° C., 1 week): Type A
HPLC purity ([5]; 60° C., 1 week): 99.83 Area %
Assay ([5]; 60° C., 2 weeks): 95.0%
Form (XRPD) ([5]; 60° C., 2 weeks): Type A
HPLC purity ([5]; 60° C., 2 weeks): 99.76 Area %
Assay ([5]; 60° C., 4 weeks): 95.7%
Form (XRPD) ([5]; 60° C., 4 weeks): Type A
HPLC purity ([5]; 60° C., 4 weeks): 99.82 Area %
KF (water content) ([5]; 60° C., 4 weeks): 4.3786%
Assay ([5]; Initial): 95.6%
Form (XRPD) ([5]; Initial): Type A
HPLC purity ([5]; Initial): 99.84 Area %
KF (water content) ([5]; Initial): 2.8220%
Assay ([5]; […], 1 week): 96.3%
Form (XRPD) ([5]; […], 1 week): Type A
HPLC purity ([5]; […], 1 week): 99.85 Area %
Assay ([5]; […], 2 weeks): 95.6%
Form (XRPD) ([5]; […], 2 weeks): Type A
HPLC purity ([5]; […], 2 weeks): 99.84 Area %
Assay ([5]; […], 4 weeks): 96.5%
Form (XRPD) ([5]; […], 4 weeks): Type A
HPLC purity ([5]; […], 4 weeks): 99.85 Area %
KF (water content) ([5]; […], 4 weeks): 3.1154%
HPLC purity change after solid stability [5, 6]: no form change, or obvious HPLC purity change
form change after solid stability [5, 6]: no form change
